From PMC4852132 (Biochemistry, 2016) come the findings set out here.

“And” between values parts separate entries of the source, which are not always exact repeats. Identical values can stand only once. Like-named read-outs stand apart in the source and are kept apart here.

The term Kd denotes the equilibrium constant for the complex coming apart.

For one assay, the target named is T1, OGDHc-h (Homo sapiens, UniProt Q02218).
T1 sequence (Q02218 41-1023): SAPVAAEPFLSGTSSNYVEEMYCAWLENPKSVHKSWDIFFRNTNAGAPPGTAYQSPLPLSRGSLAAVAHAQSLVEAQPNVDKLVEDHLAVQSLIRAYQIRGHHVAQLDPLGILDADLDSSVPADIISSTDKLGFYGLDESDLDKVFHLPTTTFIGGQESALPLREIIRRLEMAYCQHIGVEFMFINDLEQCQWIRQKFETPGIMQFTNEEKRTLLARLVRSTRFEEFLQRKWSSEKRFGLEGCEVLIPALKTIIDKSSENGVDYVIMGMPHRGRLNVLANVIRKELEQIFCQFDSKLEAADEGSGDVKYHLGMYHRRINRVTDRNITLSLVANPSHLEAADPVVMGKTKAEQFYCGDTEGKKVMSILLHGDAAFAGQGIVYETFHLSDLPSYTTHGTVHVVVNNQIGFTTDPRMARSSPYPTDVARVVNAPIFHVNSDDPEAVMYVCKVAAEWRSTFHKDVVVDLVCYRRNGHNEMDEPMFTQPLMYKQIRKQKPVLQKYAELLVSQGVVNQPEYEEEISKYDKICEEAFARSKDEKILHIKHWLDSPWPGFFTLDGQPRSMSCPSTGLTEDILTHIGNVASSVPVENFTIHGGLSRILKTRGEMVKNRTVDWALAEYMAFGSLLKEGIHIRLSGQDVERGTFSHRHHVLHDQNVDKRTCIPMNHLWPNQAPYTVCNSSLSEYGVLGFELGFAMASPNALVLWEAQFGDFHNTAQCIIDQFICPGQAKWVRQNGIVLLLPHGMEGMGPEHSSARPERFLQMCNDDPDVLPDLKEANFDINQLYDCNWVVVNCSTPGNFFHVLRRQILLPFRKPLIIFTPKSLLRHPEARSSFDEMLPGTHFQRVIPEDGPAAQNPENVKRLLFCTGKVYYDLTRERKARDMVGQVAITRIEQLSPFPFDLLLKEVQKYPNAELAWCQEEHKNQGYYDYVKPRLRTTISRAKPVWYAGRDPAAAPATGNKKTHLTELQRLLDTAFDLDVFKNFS
T1 sequence (P36957 68-453 partner): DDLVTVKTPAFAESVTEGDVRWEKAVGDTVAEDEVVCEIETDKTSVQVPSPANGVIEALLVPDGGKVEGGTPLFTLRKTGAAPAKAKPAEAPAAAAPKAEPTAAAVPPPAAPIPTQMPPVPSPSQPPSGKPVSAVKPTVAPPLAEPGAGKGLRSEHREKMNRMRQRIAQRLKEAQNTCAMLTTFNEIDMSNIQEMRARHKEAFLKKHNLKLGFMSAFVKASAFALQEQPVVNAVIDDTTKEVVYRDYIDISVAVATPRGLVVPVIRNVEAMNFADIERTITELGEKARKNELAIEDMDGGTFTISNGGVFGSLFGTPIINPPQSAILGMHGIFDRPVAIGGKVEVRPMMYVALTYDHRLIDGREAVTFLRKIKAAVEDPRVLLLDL
T1 sequence (P09622 36-509 partner): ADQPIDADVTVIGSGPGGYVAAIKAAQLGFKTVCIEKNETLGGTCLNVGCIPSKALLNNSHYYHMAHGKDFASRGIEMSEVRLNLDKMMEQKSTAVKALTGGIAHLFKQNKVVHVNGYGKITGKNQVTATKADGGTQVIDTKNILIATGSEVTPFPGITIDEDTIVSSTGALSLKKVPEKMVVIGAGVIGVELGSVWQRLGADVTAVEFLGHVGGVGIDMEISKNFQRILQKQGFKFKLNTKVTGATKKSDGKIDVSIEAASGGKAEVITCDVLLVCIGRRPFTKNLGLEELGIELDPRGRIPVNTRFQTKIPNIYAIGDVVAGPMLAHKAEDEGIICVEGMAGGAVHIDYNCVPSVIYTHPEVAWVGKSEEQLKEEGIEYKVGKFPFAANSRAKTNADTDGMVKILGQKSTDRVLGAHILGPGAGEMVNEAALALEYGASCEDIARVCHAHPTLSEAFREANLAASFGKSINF
In words: Overall OGDHc-h activity by formation of NADH. The assay is classed as biochemical.

A further assay concerns the target PDHc-ec (Escherichia coli, UniProt P0AFG8). The note with it: cofactor 0.2 mM in assay, no ThDP present for MeOThDP.
For assay [1], the target named is T2, E1p-h (Homo sapiens, UniProt P08559+P11177).
T2 sequence (P08559 30-390): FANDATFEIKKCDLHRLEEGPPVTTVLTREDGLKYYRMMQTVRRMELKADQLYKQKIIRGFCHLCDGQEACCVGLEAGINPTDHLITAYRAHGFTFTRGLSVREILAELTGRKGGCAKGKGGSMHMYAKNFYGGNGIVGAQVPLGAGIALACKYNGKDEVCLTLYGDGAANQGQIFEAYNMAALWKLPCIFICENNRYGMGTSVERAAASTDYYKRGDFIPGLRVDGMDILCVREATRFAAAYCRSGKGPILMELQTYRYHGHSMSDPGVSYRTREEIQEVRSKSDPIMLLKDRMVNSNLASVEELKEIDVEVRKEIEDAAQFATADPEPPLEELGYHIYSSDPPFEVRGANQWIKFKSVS
T2 sequence (P11177 31-359): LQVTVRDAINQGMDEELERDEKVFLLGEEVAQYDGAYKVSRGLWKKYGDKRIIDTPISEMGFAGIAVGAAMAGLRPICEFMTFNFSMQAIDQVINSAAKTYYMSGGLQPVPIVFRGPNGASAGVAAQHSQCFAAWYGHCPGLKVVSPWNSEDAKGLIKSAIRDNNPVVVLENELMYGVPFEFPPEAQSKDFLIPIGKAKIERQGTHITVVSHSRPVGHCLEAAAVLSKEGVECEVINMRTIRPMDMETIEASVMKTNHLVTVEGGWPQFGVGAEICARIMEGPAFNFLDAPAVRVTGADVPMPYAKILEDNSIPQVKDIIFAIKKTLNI
In words: MS reductive acetylation of the E2p-h lipoyl domain. The assay is classed as biochemical. The note with it: E1p-h with cofactor and pyruvate.

The target of assay [2] is T3, DXPS (Escherichia coli, UniProt P77488). The note with it: apo-DXPS with 0.15 mM cofactor, 5 °C, 15 h.
The next assay addresses PDHc-h (Homo sapiens, UniProt P08559+P11177). In words: Overall PDHc-h activity by formation of NADH at 340 nm. The assay is classed as biochemical.
Assay [3] has as its target T2, E1p-h. In words: Quenching of intrinsic fluorescence of E1p-h. The assay is classed as binding.
Another assay has as its target E1p-ec (Escherichia coli, UniProt P0AFG8).
For assay [4], the target named is T3, DXPS. To be noted: apo-DXPS with 0.10 mM cofactor.
The target of assay [5] is T3, DXPS.

As for `COc1ncc(C[n+]2csc(CCOP(=O)(O)OP(=O)(O)O)c2C)c(N)n1` [MeOThDP, 2′-methoxythiamin diphosphate], the “overall OGDHc activity, percent of that with ThDP” value at OGDHc-h is reported as 64%. In addition, at PDHc-ec, the “overall PDHc-ec activity, percent of that with ThDP” value is 8.6% and 11% and 5.9%. The “rate of reductive acetylation of LD1-h” value on E1p-h [1] is 6.38 s⁻¹. For the same compound, the “formation of (R)-acetolactate from pyruvate” value at DXPS [2] is recorded as “not the case”. Further, the “pH of maximal kcat in the overall PDHc-h activity” value on PDHc-h (E1p-h complexed with MeOThDP) turned out to be 7.25. On E1p-h [3], the “percent of E1p-h fluorescence quenched” value is 4%. In addition, the Kd came to 16.2 ± 4.5 µM on E1p-h [3] (read-out: Kd from quenching of E1p-h fluorescence) and 6.24 ± 0.23 µM at DXPS [5] (read-out: Kd from quenching of the intrinsic fluorescence of DXPS, apo-DXPS, pH 8.0, 25 °C). The “percent of the E1p-ec fluorescence quenched” value at E1p-ec is listed as 5.8%. Further, on DXPS [4], the “DXPS activity, percent of that with ThDP” value is 9–14% and 8.8% and 14% and ~ 8.8% and ~ 14%. Moreover, the DXPS activity at DXPS [4] (37 °C, independent preparations) is 0.26 ± 0.04 µmol min^−1 (mg of DXPS)^−1 and 0.30 ± 0.01 µmol min^−1 (mg of DXPS)^−1. For the same compound, the “percent of quenching of the fluorescence of apo-DXPS” value on DXPS [5] is 27%.

On to `Cc1ncc(C[n+]2csc(CCOP(=O)([O-])OP(=O)(O)O)c2C)c(N)n1` [ThDP, thiamin diphosphate], for which, at OGDHc-h, the “overall OGDHc activity, percent of that with ThDP” value is reported as 100%. Besides, the “overall PDHc-ec activity, percent of that with ThDP” value at PDHc-ec amounted to 100%. Also, the “rate of reductive acetylation of LD1-h” value at E1p-h [1] came to 10.25 s⁻¹. Further, the “formation of (R)-acetolactate from pyruvate” value at DXPS [2] is “formation of (R)-acetolactate”. Besides, at PDHc-h (cofactor 0.2 or 0.5 mM), the “overall PDHc-h activity, percent of that with ThDP” value is reported as 100%. Also, on E1p-h [3], binding was put at a Kd of 7.2 ± 0.5 µM and the “percent of E1p-h fluorescence quenched” value turned out to be 19%. Besides, on E1p-ec, the “percent of the E1p-ec fluorescence quenched” value is reported as 9.9%. Moreover, the “DXPS activity, percent of that with ThDP” value at DXPS [4] is listed as 100%. Moreover, the “percent of quenching of the fluorescence of apo-DXPS” value on DXPS [5] is recorded as 35%.
